Test results as given in the NIST ThermoML archive (doi:10.1007/s10765-005-5585-3).

Conditions: 101.33 kPa, Liquid; for mass density: UV imaging technique; for viscosity: oscillations around equilibria

[Ir] [iridium]
Conditions | mass density [kg/m3] | viscosity [mPa·s]
2300 K | 19856 | –
2350 K | 19814 | –
2373 K | – | 8.47
2398 K | – | 8.34
2400 K | 19771 | –
2423 K | – | 8.21
2448 K | – | 8.08
2450 K | 19729 | –
2473 K | – | 7.97
2498 K | – | 7.85
2500 K | 19686 | –
2523 K | – | 7.74
2548 K | – | 7.63
2550 K | 19644 | –
2573 K | – | 7.53
2598 K | – | 7.42
2600 K | 19601 | –
2623 K | – | 7.33
2648 K | – | 7.23
2650 K | 19559 | –
2673 K | – | 7.14
2698 K | – | 7.05
2700 K | 19516 | –
2723 K | – | 6.97
2748 K | – | 6.88
2750 K | 19474 | –
2773 K | – | 6.8
2800 K | 19431 | –
2850 K | 19389 | –
2900 K | 19346 | –
2950 K | 19304 | –
3000 K | 19261 | –
